Measurements taken from patent US8227616B2, “Cyanopyridine antibacterial agents and methods of use thereof” (Wisconsin Alumni Research Foundation, priority 2006, dated 2012).
≈ marks a conversion by molar mass, not a printed value.

Experiments:
S. aureus ATCC 10390 [1] = experiment: MIC determination with authentic compounds resynthesized in solution; type: cell-based, Staphylococcus aureus; set-up: MIC against S. aureus 10390: unit: uM; conditions: for MIC: Staphylococcus aureus, ATCC10390; for MIC against S. aureus 10390: values quoted in killing-curve protocol, unit not given
Description: (§1) For estimated MIC determination, DMSO was added to the dried compound residue obtained from a single spot to afford ca. 100 μL of a 2 mM stock solution. Aliquots (5 μL) of these solutions were added to a 96-well plate, followed by 195 μL of diluted S. aureus 10390 (10^6 CFUs/mL) to yield ca. 50 μM final concentrations. The plates were swirled for 1 h to ensure compound dissolution, incubated for 12 h at 37° C., and the absorbance at 595 nm was recorded using a plate reader. […] Actual MIC values were determined for lead compounds resynthesized in solution using an analogous procedure with solutions of known concentration (see).
(§2) Dose response growth inhibition curves were determined for each active compound (resynthesized in solution) against S. aureus 10390 (SA) and methicillin-resistant S. aureus 33591 (MRSA). […] MIC assays were performed in quadruplicate.

[2] = tested on: Methicillin-resistant S. aureus ATCC 33591 (MRSA); experiment: as above; type: cell-based; conditions: Staphylococcus aureus; Table 3; authentic sample, only trans isomers of chalcones; error reflects step size in the serial dilutions
Description: as §1, §2

S. aureus ATCC 10390 [3] = experiment: Estimated MIC, solution-phase microdilution absorbance assay with crude macroarray spot stock solutions; type: cell-based, Staphylococcus aureus; conditions: for MIC: Staphylococcus aureus, ATCC10390, 12 h; for inhibition of S. aureus at the 12.5 μM level: macroarray stock solutions diluted four fold
Description: Spots from a new 69 member chalcone macroarray as well as the three heterocyclic macroarrays prepared earlier were punched out, cleaved, and eluted with acetonitrile. The resulting solutions were concentrated to a residue that was taken up in DMSO to form 2 mM stock solutions.
From the stock solutions, microdilution assays in a 96 well plate starting at 50 μM were performed in quadruplicate. Each well contained 5 μL of the stock solution as well as 195 μL of a S. aureus culture. The turbidity of each well was measured after incubating 12 hours using a standard plate reader. Active compounds can be further diluted and the assay repeated.
To acquire more quantitative antibacterial activity data about our compounds and verify our on-support assay results, we performed solution-phase absorbance assays that provided estimates of the minimum inhibitory concentration (MIC) of each macroarray member against S. aureus. Stock solutions (ca. 2 mM) were generated by cleaving and eluting 198 individual compounds from chalcone (3) and heterocyclic macroarrays (5, 7, and 8). […] The good overall purities of the crude macroarray compounds allowed for reasonable estimations of MICs.
as §1
Preparation of spot samples and controls. An aliquot of DMSO (ca. 100 μL depending on the loading of the parent hydroxyacetophenone) was added to the dried compound residue obtained after TFA cleavage and elution from a single spot. This afforded a 2.0 mM “spot stock” solution for each spot. A small aliquot of each “spot stock” solution was saved for subsequent LC-MS analysis.
For estimated MIC screens, 5.0 μL portions of the “spot stock” solutions were added to the appropriate wells in a sterile, polystyrene 96-well plate to yield ca. 50 μM solutions (dependent on the initial loading of hydroxyacetopheneone and compound purity). To the positive and negative control wells, 5.0 μL of DMSO were added (positive controls contained bacteria but no compound, while negative controls had neither compound nor bacteria). All estimated MIC assays were performed in quadruplicate. Note: the MIC value is defined as the lowest concentration where no bacterial growth occurs.
Representative estimated MIC assay procedure. This assay procedure is based in part on the method reported by Strøm et al.^xiii A 400 μL portion of overnight S. aureus 10390 culture was diluted with 100 mL of sterile LB broth to give ca. 10^6 CFUs per mL. Aliquots (195 μL) of this solution were added to all of the wells in a sterile 96-well plate (except for the negative control wells; 195 μL of sterile LB broth were added to these wells). The plates were placed on an orbital shaker table and gently swirled for 1 h to ensure compound dissolution, and then incubated (without shaking) for 12 h at 37° C. The absorbance at 595 nm was recorded using a plate reader.
The original “spot stock” solutions of these compounds were diluted with DMSO to give ca. 25 and 13 μM final concentrations and tested for inhibitory activities using the procedure described above.

[4] = tested on: B. subtilis subsp. spizizenii ATCC 6633; experiment: MIC determination, species selectivity; type: cell-based; conditions: Bacillus subtilis, ATCC6633; authentic sample, only trans isomers of chalcones; error reflects step size
Description: (§3) Each compound from Table 3 was tested for inhibitory activity at 2.5, 5, 7.5, 10, 15, 20, 25, and 30 μM in the susceptible overlaid strains: B. subtilis ATCC 6633, S. epidermidis ATCC 12228, and K. pneumoniae ATCC 4352. MIC assays were run in quadruplicate as described above (with shaking).

[5] = tested on: S. epidermidis ATCC 12228; experiment: MIC determination, species selectivity; type: cell-based; conditions: Staphylococcus epidermidis, ATCC12228; authentic sample, only trans isomers of chalcones; error reflects step size
Description: as §3

S. aureus 10390 = experiment: Time-dependent bacterial killing curves; type: cell-based, Staphylococcus aureus; conditions: 0.5x to 4x MIC, 0-6 h
Description: Solutions of compounds 4Bv, 6Ao, 9Cf, and linezolid were prepared in DMSO over a range of concentrations. […] At 0, 2, 4, and 6 h time points, […] samples were withdrawn from the test tubes, diluted into 10 mL of LB broth in a test tube, and swabbed in duplicate on agar plates to determine CFUs. These plates were incubated at 37° C. for 24 h, after which time the colonies were counted visually. […] Instead, 200 μL was removed from the test tube and directly swabbed on the agar plates.

K. pneumoniae = experiment: Agar overlay TTC assay, compound overlays; type: cell-based, Klebsiella pneumoniae; conditions: 30 nanomole aliquots of purified compound on filter paper
K. pneumoniae ATCC 4352 = experiment: MIC determination, species selectivity; type: cell-based; conditions: Klebsiella pneumoniae, ATCC4352; authentic sample, only trans isomers of chalcones; error reflects step size
Description: as §3

[6] = Table 3, authentic sample, only trans isomers of chalcones, error reflects step size in the serial dilutions, read-out: S. aureus MIC
[7] = Table 3, serial dilution of spot stock solutions of crude macroarray compounds, read-out: S. aureus Estimated MIC range
[8] = Table 2, authentic sample synthesized according to standard techniques, read-out: observed MIC
[9] = Table 2, serial dilution of stock solutions obtained by SPOT-synthesis, read-out: estimated MIC range

Row | MIC (S. aureus ATCC 10390 [1]; [6]) [µM] | MIC [2] [µM] | MIC (S. aureus ATCC 10390 [3]; [7]) [µM] | MIC [4] [µM] | MIC [5] [µM] | MIC (S. aureus ATCC 10390 [1]; [8]) [µM] | MIC (S. aureus ATCC 10390 [3]; [9]) [µM] | Structure (SMILES) | MIC against S. aureus 10390 (S. aureus ATCC 10390 [1]) | mode of activity (bacteriostatic or bactericidal) (S. aureus 10390) | susceptibility in agar overlay TTC assay (K. pneumoniae) | MIC (K. pneumoniae ATCC 4352) [µM] | inhibition of S. aureus at the 12.5 μM level (S. aureus ATCC 10390 [3])
1 | 32.5 ± 1.2 (≈ 12.1 µg/mL) | 31.2 ± 1.2 (≈ 11.6 µg/mL) | 25 to 50 (≈ 9.28 to 18.6 µg/mL) | 17.5 ± 2.5 (≈ 6.5 µg/mL) | > 30 | – | – | COc1cc(-c2cc(-c3ccc(Br)cc3)nc(C)n2)ccc1O [Compound 9Cf, 4-(4-bromophenyl)-6-(4-hydroxy-3-methoxyphenyl)-2-methylpyrimidine] | ~32.5 | bacteriostatic | – | – | –
2 | 11.6 ± 0.9 (≈ 4.12 µg/mL) | 13.4 ± 0.9 (≈ 4.76 µg/mL) | < 12.5 | 22.5 ± 2.5 (≈ 7.99 µg/mL) | 17.5 ± 2.5 (≈ 6.22 µg/mL) | 10 ± 1 (≈ 3.55 µg/mL) | 6.25 to 12.5 (≈ 2.22 to 4.44 µg/mL) | Cc1nc(-c2cccc(O)c2)cc(-c2ccc(Cl)cc2Cl)c1C#N [Compound 6Bt, 4-(2,4-dichlorophenyl)-6-(3-hydroxyphenyl)-2-methyl-3-cyanopyridine] | – | – | – | – | complete inhibition
3 | 7.5 ± 1.2 (≈ 2.92 µg/mL) | 7.5 ± 1.2 (≈ 2.92 µg/mL) | < 12.5 | 3.8 ± 1.2 (≈ 1.48 µg/mL) | 6.3 ± 1.2 (≈ 2.45 µg/mL) | 6 ± 0.5 (≈ 2.34 µg/mL) | 6.25 to 12.5 (≈ 2.44 to 4.87 µg/mL) | Cc1nc(-c2ccc(O)cc2)cc(-c2c(Cl)ccc(Cl)c2Cl)c1C#N [Compound 6Ao, 6-(4-hydroxyphenyl)-2-methyl-4-(2,3,6-trichlorophenyl)-3-cyanopyridine] | ~7.5 | bactericidal | – | – | complete inhibition
4 | 0.6 ± 0.1 (≈ 0.199 µg/mL) | 0.9 ± 0.1 (≈ 0.298 µg/mL) | – | – | – | 0.75 ± 0.12 (≈ 0.249 µg/mL) | – | O=C(O)c1cn(C2CC2)c2cc(N3CCNCC3)c(F)cc2c1=O [Ciprofloxacin, ciprofloxacin, reference compound] | – | – | – | – | –

Row | Structure (SMILES) | MIC (S. aureus ATCC 10390 [1]; [6]) [µM] | MIC [2] [µM] | MIC (S. aureus ATCC 10390 [3]; [7]) [µM] | MIC [4] [µM] | MIC [5] [µM] | MIC (S. aureus ATCC 10390 [1]; [8]) [µM] | MIC (S. aureus ATCC 10390 [3]; [9]) [µM] | MIC against S. aureus 10390 (S. aureus ATCC 10390 [1]) | mode of activity (bacteriostatic or bactericidal) (S. aureus 10390) | susceptibility in agar overlay TTC assay (K. pneumoniae) | MIC (K. pneumoniae ATCC 4352) [µM] | inhibition of S. aureus at the 12.5 μM level (S. aureus ATCC 10390 [3])
5 | O=C(/C=C/c1ccc(Cl)cc1Cl)c1ccc(O)cc1 [Compound 4At, 2,4-dichloro-4′-hydroxychalcone] | 21.2 ± 1.2 (≈ 6.21 µg/mL) | 18.7 ± 1.2 (≈ 5.48 µg/mL) | 25 to 50 (≈ 7.33 to 14.7 µg/mL) | 27.5 ± 2.5 (≈ 8.06 µg/mL) | 27.5 ± 2.5 (≈ 8.06 µg/mL) | 18.8 ± 1.2 (≈ 5.51 µg/mL) | 25 to 50 (≈ 7.33 to 14.7 µg/mL) | – | – | weakly susceptible | > 250 | –
